Converted amounts (≈) assume the structure as drawn.

Data set [1] is described as follows: Solubilization of Compound 34 in microemulsion formulation. The class given is physicochemical. As to conditions: microemulsion preconcentrate or microemulsion diluted with water. From the text: Microemulsion preconcentrate or diluted microemulsion with water is used. The formulation solubilizes the Compound 34 up to 15% by wt. The specific components for formulation are: […]

The nature of data set [2]: physchem. As to conditions: aqueous buffer, Compound 34 solubility.
Data set [3] is described as follows: in vivo. As to conditions: Sprague-Dawley, rat. Also noted: species or system sprague dowley rats.

What is called solubility is the concentration that dissolves in the medium under given conditions. High values mean a readily soluble substance, low ones a poorly soluble substance. What is called bioavailability is dose-corrected exposure relative to a reference, in per cent. High values mean much systemic uptake, low ones little systemic uptake. For the compound `CC[C@@H]1C[C@]1(NC(=O)[C@@H]1C[C@@]2(CN1C(=O)[C@@H](NC(=O)[C@@H](NC(=O)[C@@H]1CCCCN1C(C)C)C1CCCCC1)C(C)(C)C)C(C)(C)C21CCC1)C(=O)NS(=O)(=O)N1CCCC1` [Compound 34, (5R,8S)-7-[(2S)-2-{[(2S)-2-cyclohexyl-2-({[(2S)-1-isopropylpiperidin-2-yl]carbonyl}amino)acetyl]a-mino}-3,3-dimethylbutanoyl]-N-{(1R,2R)-2-ethyl-1-[(pyrrolidin-1-ylsulfonyl)carbamoyl]cyclo-propyl}-10,10-dimethyl-7-azadispiro[3.0.4.1]decane-8-carboxamide], the “solubilized in microemulsion formulation” value in data set [1] is given as “up to 15 % by wt”. In data set [2], the concentration in solution (solubility) came to 30 µg/mL (≈ 35 µM). Also, the bioavailability in data set [3] was in the range of 80 to 95%.
